Reference: patent US9499550B2 (BRISTOL-MYERS SQUIBB COMPANY, priority 2012, dated 2016)
Like-named read-outs stand apart in the source and are kept apart here.

Key:
[1] = test system: HCV genotype 1a (H77 strain) replicon in HUH-7 cells; test: HCV replicon luciferase reporter assay, genotype 1a; assay type: cell-based; conditions: Hepatitis C virus, Huh-7, 72 h, 3 days incubation
Procedure, shortened: (§1)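 Replicon inhibition for both genotypes was measured as Renilla luciferase signal (EnduRen, 7.5 μM final, 2 h) after 3-day, 37° C exposure of replicon-bearing HUH-7 cells in 4% FCS DMEM, 0.5% DMSO. The 1b construct carries S1179I; the 1a H77 construct carries P1496L and S2204I. Twenty-point, 3-fold dilutions were fitted four-parametrically for EC50, and CC50 was taken from multiplexed Cell Titer-Blue.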

[2] = test system: HCV genotype 1b (Con1) replicon in HUH-7 cells; test: HCV replicon luciferase reporter assay, genotype 1b; assay type: cell-based; conditions: Hepatitis C virus, Huh-7, 72 h, 3 days incubation
Procedure, shortened: as §1

[3] = HCV genotype 1a replicon luciferase, read-out: LE_1a (EC50, range)
[4] = HCV genotype 1b replicon luciferase, read-out: LE_1b (EC50, range)
[5] = HCV genotype 1a replicon luciferase, read-out: LE_1a (EC50)
[6] = HCV genotype 1b replicon luciferase, read-out: LE_1b (EC50)

SMILES	EC50 [1, 3] [nM]	EC50 [2, 4] [nM]	other results
CC[C@@H]1C[C@H](C)CC/C=C\[C@@H]2C[C@@]2(C(=O)NS(=O)(=O)C2(C)CC2)NC(=O)[C@@H]2C[C@@H](Oc3nccc4c5c(ccc34)N(C)CCO5)CN2C(=O)[C@H]1NC(=O)OC(C)(C)C(C)(F)F [Compound 5328, 3,3-difluoro-2-methylbutan-2-yl((2R,6S,7R,9R,13aS,14aR,16aS,Z)-7-ethyl-9-methyl-2-((4-methyl-3,4-dihydro-2H-[1,4]oxazino[2,3-f]isoquinolin-7-yl)oxy)-14a-(((1-methylcyclopropyl)sulfonyl)carbamoyl)-5,16-dioxo-1,2,3,5,6,7,8,9,10,11,13a,14,14a,15,16,16a-hexadecahydrocyclopropa[e]pyrrolo[1,2-a][1,4]diazacyclopentadecin-6-yl)carbamate]	< 5.46	< 5.46	
CC[C@@H]1C[C@H](C)CC/C=C\[C@@H]2C[C@@]2(C(=O)NS(=O)(=O)C2CC2)NC(=O)[C@@H]2C[C@@H](Oc3nc(-c4ccc(OC(C)C)cn4)cc4cc(OC)ccc34)CN2C(=O)[C@H]1NC(=O)OC(C)(C)C(F)(F)F [Compound 5485, 1,1,1-trifluoro-2-methylpropan-2-yl((2R,6S,7R,9R,13aS,14aR,16aS,Z)-14a-((cyclopropylsulfonyl)carbamoyl)-7-ethyl-2-((3-(5-isopropoxypyridin-2-yl)-6-methoxyisoquinolin-1-yl)oxy)-9-methyl-5,16-dioxo-1,2,3,5,6,7,8,9,10,11,13a,14,14a,15,16,16a-hexadecahydrocyclopropa[e]pyrrolo[1,2-a][1,4]diazacyclopentadecin-6-yl)carbamate]	1.01 to 5	1.01 to 5	
CC[C@@H]1C[C@H](C)CC/C=C\[C@@H]2C[C@@]2(C(=O)NS(=O)(=O)C2CC2)NC(=O)[C@@H]2C[C@@H](Oc3nc4cc(OC)ccc4nc3O)CN2C(=O)[C@H]1NC(=O)OC(C)(C)C [Compound 4262]	35 to 620	35 to 620	
CC[C@@H]1C[C@H](C)CC/C=C\[C@@H]2C[C@@]2(C(=O)NS(=O)(=O)C2CC2)NC(=O)[C@@H]2C[C@@H](Oc3nc(OC)cc4ccccc34)CN2C(=O)[C@H]1NC(=O)OC(C)(C)C(F)(F)F [Compound 6003, 1,1,1-trifluoro-2-methylpropan-2-yl((2R,6S,7R,9R,13aS,14aR,16aS,Z)-14a-((cyclopropylsulfonyl)carbamoyl)-7-ethyl-2-((3-methoxyisoquinolin-1-yl)oxy)-9-methyl-5,16-dioxo-1,2,3,5,6,7,8,9,10,11,13a,14,14a,15,16,16a-hexadecahydrocyclopropa[e]pyrrolo[1,2-a][1,4]diazacyclopentadecin-6-yl)carbamate]	< 5.46	< 5.46	EC50 [1, 5]: 1.33 nM; EC50 [2, 6]: 0.22 nM
CC[C@@H]1C[C@H](C)CC/C=C\[C@@H]2C[C@@]2(C(=O)NS(=O)(=O)C2(C)CC2)NC(=O)[C@@H]2C[C@@H](Oc3nccc4c5c(ccc34)OCCO5)CN2C(=O)[C@H]1NC(=O)OC(C)(C)C(F)F [Compound 5535, 1,1-difluoro-2-methylpropan-2-yl((2R,6S,7R,9R,13aS,14aR,16aS,Z)-2-((2,3-dihydro-[1,4]dioxino[2,3-f]isoquinolin-7-yl)oxy)-7-ethyl-9-methyl-14a-(((1-methylcyclopropyl)sulfonyl)carbamoyl)-5,16-dioxo-1,2,3,5,6,7,8,9,10,11,13a,14,14a,15,16,16a-hexadecahydrocyclopropa[e]pyrrolo[1,2-a][1,4]diazacyclopentadecin-6-yl)carbamate]	5.01 to 35	1.01 to 5	
CC[C@@H]1C[C@@H](C)CC/C=C\[C@@H]2C[C@@]2(C(=O)NS(=O)(=O)C2CC2)NC(=O)[C@@H]2C[C@@H](Oc3nccc4cc(OC)c(F)cc34)CN2C(=O)[C@H]1NC(=O)OC(C)(C)C(C)(F)F [Compound 5472, 3,3-difluoro-2-methylbutan-2-yl((2R,6S,7R,9S,13aS,14aR,16aS,Z)-14a-((cyclopropylsulfonyl)carbamoyl)-7-ethyl-2-((7-fluoro-6-methoxyisoquinolin-1-yl)oxy)-9-methyl-5,16-dioxo-1,2,3,5,6,7,8,9,10,11,13a,14,14a,15,16,16a-hexadecahydrocyclopropa[e]pyrrolo[1,2-a][1,4]diazacyclopentadecin-6-yl)carbamate]	1.01 to 5	1.01 to 5	
COCCOc1cnc(O[C@@H]2C[C@H]3C(=O)N[C@]4(C(=O)NS(=O)(=O)C5(C)CC5)C[C@H]4/C=C\CC[C@@H](C)C[C@@H](C)[C@H](NC(=O)OC(C)(C)C(F)(F)F)C(=O)N3C2)c2ccc(OC)cc12 [Compound 1145, 1,1,1-trifluoro-2-methylpropan-2-yl((2R,6S,7R,9R,13aS,14aR,16aS,Z)-2-((6-methoxy-4-(2-methoxyethoxyl)isoquinolin-1-yl)oxy)-7,9-dimethyl-14a-(((1-methylcyclopropyl)sulfonyl)carbamoyl)-5,16-dioxo-1,2,3,5,6,7,8,9,10,11,13a,14,14a,15,16,16a-hexadecahydrocyclopropa[e]pyrrolo[1,2-a][1,4]diazacyclopentadecin-6-yl)carbamate]			EC50 ([1]; HCV genotype 1a replicon luciferase assay, range class, read-out: LE_1a (EC50, range)): < 5.46 nM; EC50 ([2]; HCV genotype 1b replicon luciferase assay, range class, read-out: LE_1b (EC50, range)): < 5.46 nM
COc1ccc2nc(C(C)C)c(O[C@@H]3C[C@H]4C(=O)N[C@]5(C(=O)NS(=O)(=O)C6CC6)C[C@H]5/C=C\CC[C@@H](C)C[C@@H](C)[C@H](NC(=O)OC(C)(C)C)C(=O)N4C3)nc2c1 [Compound 4316, tert-butyl ((2R,6S,7R,9R,13aS,14aR,16aS,Z)-14a-((cyclopropylsulfonyl)carbamoyl)-2-((3-isopropyl-7-methoxyquinoxalin-2-yl)oxy)-7,9-dimethyl-5,16-dioxo-1,2,3,5,6,7,8,9,10,11,13a,14,14a,15,16,16a-hexadecahydrocyclopropa[e]pyrrolo[1,2-a][1,4]diazacyclopentadecin-6-yl)carbamate]	1.01 to 5	1.01 to 5	
CC[C@@H]1C[C@H](C)CC/C=C\[C@@H]2C[C@@]2(C(=O)NS(=O)(=O)C2CC2)NC(=O)[C@@H]2C[C@@H](Oc3nc4c(c5cc(OC)c(F)cc35)CCCO4)CN2C(=O)[C@H]1NC(=O)OC(C)(C)C(F)(F)F [Compound 1195]			EC50 ([1]; GETYPE1A, HCV genotype 1a replicon luciferase, read-out: LE_1a (EC50, range)): 1.01 to 5 nM; EC50 ([2]; GETYPE1B, HCV genotype 1b replicon luciferase, read-out: LE_1b (EC50, range)): 1.01 to 5 nM
CCn1nc(O[C@@H]2C[C@H]3C(=O)N[C@]4(C(=O)NS(=O)(=O)C5(C)CC5)C[C@H]4/C=C\CC[C@@H](C)C[C@@H](C)[C@H](NC(=O)C(=O)N(C)C)C(=O)N3C2)c2ccccc2c1=O [Compound 5063, N1-((2R,6S,7R,9R,13aS,14aR,16aS,Z)-2-((3-ethyl-4-oxo-3,4-dihydrophthalazin-1-yl)oxy)-7,9-dimethyl-14a-(((1-methylcyclopropyl)sulfonyl)carbamoyl)-5,16-dioxo-1,2,3,5,6,7,8,9,10,11,13a,14,14a,15,16,16a-hexadecahydrocyclopropa[e]pyrrolo[1,2-a][1,4]diazacyclopentadecin-6-yl)-N2,N2-dimethyloxalamide]	> 87.4	> 87.4	EC50 [1, 5]: ≥ 1000 nM; EC50 [2, 6]: 479 nM
COc1ccc2c(O[C@@H]3C[C@H]4C(=O)N[C@]5(C(=O)NS(=O)(=O)C6(F)CC6)C[C@H]5/C=C\CC[C@@H](C)C[C@@H](C)[C@H](NC(=O)OCC(C)C)C(=O)N4C3)nccc2c1 [Compound 4018]	< 5.46	< 5.46	
CC(C)Oc1ccc2c(O[C@@H]3C[C@H]4C(=O)N[C@]5(C(=O)NS(=O)(=O)C6(C)CC6)C[C@H]5/C=C\CC[C@@H](C)C[C@@H](C)[C@H](NC(=O)OC(C)(C)C(F)(F)F)C(=O)N4C3)nccc2c1 [Compound 5159, 1,1,1-trifluoro-2-methylpropan-2-yl((2R,6S,7R,9R,13aS,14aR,16aS,Z)-2-((6-isopropoxyisoquinolin-1-yl)oxy)-7,9-dimethyl-14a-(((1-methylcyclopropyl)sulfonyl)carbamoyl)-5,16-dioxo-1,2,3,5,6,7,8,9,10,11,13a,14,14a,15,16,16a-hexadecahydrocyclopropa[e]pyrrolo[1,2-a][1,4]diazacyclopentadecin-6-yl)carbamate]	< 5.46	< 5.46	
CCOc1nnc(O[C@@H]2C[C@H]3C(=O)N[C@]4(C(=O)NS(=O)(=O)C5CC5)C[C@H]4/C=C\CC[C@H](C)C[C@@H](C)[C@H](NC(=O)NC(C)(C)C)C(=O)N3C2)c2ccccc12 [Compound 5040, (2R,6S,7R,9S,13aS,14aR,16aS,Z)-6-(3-(tert-butyl)ureido)-N-(cyclopropylsulfonyl)-2-((4-ethoxyphthalazin-1-yl)oxy)-7,9-dimethyl-5,16-dioxo-1,2,3,5,6,7,8,9,10,11,13a,14,14a,15,16,16a-hexadecahydrocyclopropa[e]pyrrolo[1,2-a][1,4]diazacyclopentadecine-14a-carboxamide]	> 87.4	> 87.4	
CC(C)Oc1ccc2c(O[C@@H]3C[C@H]4C(=O)N[C@]5(C(=O)NS(=O)(=O)C6(C)CC6)C[C@H]5/C=C\CC[C@H](C)C[C@@H](C)[C@H](NC(=O)O[C@H](C)C(F)(F)F)C(=O)N4C3)nccc2c1 [Compound 5160, (R)-1,1,1-trifluoropropan-2-yl ((2R,6S,7R,9S,13aS,14aR,16aS,Z)-2-((6-isopropoxyisoquinolin-1-yl)oxy)-7,9-dimethyl-14a-(((1-methylcyclopropyl)sulfonyl)carbamoyl)-5,16-dioxo-1,2,3,5,6,7,8,9,10,11,13a,14,14a,15,16,16a-hexadecahydrocyclopropa[e]pyrrolo[1,2-a][1,4]diazacyclopentadecin-6-yl)carbamate]	4.82 to 103	< 5.46	
